What was measured:
Assay type in all cases: in vivo
Conditions in all cases: evaluated after 13 days, 10=total damage to plant, 0=no damage to plant
[1] = test system: Amaranthus retroflexus; test: Example B2 herbicidal action, pre-emergence, pots in glasshouse
Protocol: (§1) Seeds of a variety of test species were sown in standard soil in pots. After cultivation for one day (pre-emergence) or after 8 days cultivation (post-emergence) under controlled conditions in a glasshouse (at 24/16° C., day/night; 14 hours light; 65% humidity), the plants were sprayed with an aqueous spray solution derived from the formulation of the technical active ingredient in acetone/water (50:50) solution containing 0.5% Tween 20 (polyoxyethelyene sorbitan monolaurate, CAS RN 9005-64-5). The test plants were then grown in a glasshouse under controlled conditions in a glasshouse (at 24/16° C., day/night; 14 hours light; 65% humidity) and watered twice daily. After 13 days, the test was evaluated (10=total damage to plant; 0=no damage to plant).

[2] = test system: Echinochloa crus-galli; test: as above
Protocol: as §1

[3] = test system: Ipomea hederaceae; test: as above
Protocol: as §1

[4] = test system: Setaria faberi; test: as above
Protocol: as §1

[5] = test system: Solanum nigrum; test: as above
Protocol: as §1

[6] = test system: Amaranthus retroflexus; test: Example B2 herbicidal action, post-emergence, pots in glasshouse
Protocol: as §1

[7] = test system: Echinochloa crus-galli; test: as above
Protocol: as §1

[8] = test system: Ipomea hederaceae; test: as above
Protocol: as §1

[9] = test system: Setaria faberi; test: as above
Protocol: as §1

[10] = test system: Solanum nigrum; test: as above
Protocol: as §1

| Compound | AMARE, damage to plant ([1]; 1000 g/ha) | ECHCG, damage to plant ([2]; 1000 g/ha) | IPOHE, damage to plant ([3]; 1000 g/ha) | SETFA, damage to plant ([4]; 1000 g/ha) | SOLNI, damage to plant ([5]; 1000 g/ha) | AMARE, damage to plant ([6]; 1000 g/ha) | ECHCG, damage to plant ([7]; 1000 g/ha) | IPOHE, damage to plant ([8]; 1000 g/ha) | SETFA, damage to plant ([9]; 1000 g/ha) | SOLNI, damage to plant ([10]; 1000 g/ha) | AMARE, damage to plant ([1]; 250 g/ha) | ECHCG, damage to plant ([2]; 250 g/ha) | IPOHE, damage to plant ([3]; 250 g/ha) | SETFA, damage to plant ([4]; 250 g/ha) | SOLNI, damage to plant ([5]; 250 g/ha) | AMARE, damage to plant ([6]; 250 g/ha) | ECHCG, damage to plant ([7]; 250 g/ha) | IPOHE, damage to plant ([8]; 250 g/ha) | SETFA, damage to plant ([9]; 250 g/ha) | SOLNI, damage to plant ([10]; 250 g/ha) |
| --- | --- | --- | --- | --- | --- | --- | --- | --- | --- | --- | --- | --- | --- | --- | --- | --- | --- | --- | --- | --- |
| CC(C)C(=O)Oc1c(-c2c(C(F)(F)F)nn(C)c2OC(F)F)c(=O)n(CC(F)F)c2nccnc12 [Compound B24, isobutyric acid 7-(5-difluoromethoxy-1-methyl-3-trifluoromethyl-1H-pyrazol-4-yl)-5-(2,2-difluoro-ethyl)-6-oxo-5,6-dihydro-pyrido[2,3-b]pyrazin-8-yl ester] | 10 | 8 | 5 | 7 | 8 | 9 | 8 | 8 | 8 | 10 | – | – | – | – | – | – | – | – | – | – |
| CC(C)C(=O)Oc1c(-c2nn(C)nc2C(F)(F)F)c(=O)[nH]c2nccnc12 [Compound B28] | 7 | 0 | 0 | 0 | 0 | 0 | 0 | 0 | 1 | 1 | – | – | – | – | – | – | – | – | – | – |
| O=c1c(-c2c(Cl)cncc2Cl)c(O)c2nccnc2n1CC(F)F [Compound A12, 7-(3,5-Dichloro-pyrid-4-yl)-5-(2,2-difluoro-ethyl)-8-hydroxy-5H-pyrido[2,3-b]pyrazin-6-one] | 4 | 6 | 5 | 4 | 2 | 9 | 8 | 9 | 8 | 10 | – | – | – | – | – | – | – | – | – | – |
| CC(C)(C)C(=O)Oc1c(-c2c(Cl)ccnc2Cl)c(=O)n(CC(F)F)c2nccnc12 [Compound A18, 2,2-Dimethyl-propionic acid 7-(2,4-dichloro-pyrid-3-yl)-5-(2,2-difluoro-ethyl)-6-oxo-5,6-dihydro-pyrido[2,3-b]pyrazin-8-yl ester] | 6 | 7 | 6 | 5 | 9 | 10 | 7 | 9 | 7 | 9 | – | – | – | – | – | – | – | – | – | – |
| O=c1c(-c2cnc(Cl)cc2Cl)c(O)c2nccnc2n1CC(F)F [Compound A19, 7-(4,6-Dichloro-pyrid-3-yl)-5-(2,2-difluoro-ethyl)-8-hydroxy-5H-pyrido[2,3-b]pyrazin-6-one] | 7 | 5 | 1 | 0 | 0 | 10 | 6 | 8 | 4 | 10 | – | – | – | – | – | – | – | – | – | – |
| Cn1nc(C(F)(F)F)c(-c2c(O)c3nccnc3n(CC(F)F)c2=O)c1OC(F)F [Compound B25, 7-(5-difluoromethoxy-1-methyl-3-trifluoromethyl-1H-pyrazol-4-yl)-5-(2,2-difluoro-ethyl)-8-hydroxy-5H-pyrido[2,3-b]pyrazin-6-one] | 10 | 8 | 6 | 8 | 7 | 8 | 8 | 8 | 8 | 10 | – | – | – | – | – | – | – | – | – | – |
| CC(C)(C)C(=O)Oc1c(-c2c(Cl)cncc2Cl)c(=O)n(CC(F)F)c2nccnc12 [Compound A11, 2,2-Dimethyl-propionic acid 7-(3,5-dichloro-pyrid-4-yl)-5-(2,2-difluoro-ethyl)-6-oxo-5,6-dihydro-pyrido[2,3-b]pyrazin-8-yl ester] | 8 | 8 | 5 | 7 | 8 | 9 | 8 | 8 | 8 | 8 | – | – | – | – | – | – | – | – | – | – |
| Cn1nc(-c2c(O)c3nccnc3n(CC(F)F)c2=O)c(C(F)(F)F)n1 [Compound B30] | 7 | 1 | 3 | 2 | 2 | 9 | 6 | 8 | 7 | 9 | – | – | – | – | – | – | – | – | – | – |
| CC(C)C(=O)Oc1c(-c2ccc(C(F)(F)F)nc2Cl)c(=O)n(CC(F)F)c2nccnc12 [Compound A30] | – | – | – | – | – | – | – | – | – | – | 1 | 3 | 0 | 0 | 1 | 9 | 1 | 6 | 4 | 6 |
| Cn1nc(C(F)(F)F)c(-c2c(O)c3nccnc3[nH]c2=O)c1OC(F)F [Compound B26, 7-(5-difluoromethoxy-1-methyl-3-trifluoromethyl-1H-pyrazol-4-yl)-8-hydroxy-5H-pyrido[2,3-b]pyrazin-6-one] | 1 | 1 | 0 | 0 | 0 | 5 | 6 | 3 | 8 | 3 | – | – | – | – | – | – | – | – | – | – |
| CC(C)(C)C(=O)Oc1c(-c2ccc(Cl)nc2Cl)c(=O)n(CC(F)F)c2nccnc12 [Compound A16, 2,2-dimethyl-propionic acid 7-(2,6-dichloro-pyrid-3-yl)-5-(2,2-difluoro-ethyl)-6-oxo-5,6-dihydro-pyrido[2,3-b]pyrazin-8-yl ester] | 0 | 2 | 2 | 0 | 5 | 10 | 6 | 7 | 6 | 9 | – | – | – | – | – | – | – | – | – | – |
| CCn1c(=O)c(-c2c(Cl)cncc2Cl)c(OC(=O)C(C)(C)C)c2nccnc21 [Compound A10, 2,2-Dimethyl-propionic acid 7-(3,5-dichloro-pyrid-4-yl)-5-ethyl-6-oxo-5,6-dihydro-pyrido[2,3-b]pyrazin-8-yl ester] | 0 | 5 | 2 | 1 | 2 | 9 | 7 | 8 | 6 | 9 | – | – | – | – | – | – | – | – | – | – |

— US8338598B2, “Herbicidal pyrido[2,3-B]pyrazines and their use as herbicides” (Syngenta Limited, priority 2008, dated 2012)
